{
  "source": "patent US20240082191A1",
  "about": "“TOPICAL F[…] PHOSPHOLIPID COMPOUNDS” (EGIS GYÓGYSZERGYÁR ZRT., priority 2021, published 2024)",
  "key": {"[1]": {"test_system": "rats with CCI of sciatic nerve", "assay": "Rat model of neuropathy: chronic constriction injury (CCI), paw withdrawal threshold with electronic von Frey device", "type": "in vivo", "conditions": "16.66 mg/kg", "description": "Furthermore, based on the article Bennett G J, at al (Pain, A peripheral mononeuropathy in rat that produces disorders of pain sensation like those seen in man. 1988 April; 33(1):87-107) we have developed a method for the examination of the compositions of the present invention. Thus, we have examined the compositions according to the present invention also with a different model for measuring the alleviation of the peripheral neuropathic pain also. Namely, we have carried out examinations on rats using Chronic constriction injury (CCI) model. Three weeks following nerve injury rats were assessed for hind paw mechanical withdrawal thresholds. The paw withdrawal threshold (PWT) was determined with an Electronic von Frey device according to the modified up-down method of Dixon (Efficient analysis of experimental observations, Annu Rev Pharmacol Toxicol. 1980; 20:441-62). […] The method and results are shown in example 3 and on FIG. 9. […]\nBriefly, under isoflurane anesthesia small blunt dissection was made into the skin of rat right thigh then three loosely constrictive ligatures were placed around common sciatic nerve (chronic constriction injury CCI). Three weeks following nerve injury rats were assessed for hind paw mechanical withdrawal thresholds. […]"}, "mice, allodynia": {"test_system": "mice, allodynia", "conditions": "2.5% aqueous solution, topical; cited from earlier work"}, "human patient": {"test_system": "human patient", "conditions": "2.5% aqueous solution, topical; cited from earlier work"}, "[2]": {"assay": "Pharmacokinetic studies of pregabalin (blood levels), oral and topical"}},
  "data": [
    {"smiles": "CC(C)C[C@H](CN)CC(=O)O", "note": "[pregabalin]", "values": [
      {"measurement": "Reduction of hypersensitivity after oral administration", "setting": "[1]", "value": "not able to reduce hypersensitivity"},
      {"measurement": "Time of maximum allodynia alleviating effect", "setting": "mice, allodynia", "value": 1, "unit": "h"},
      {"measurement": "Duration of reduction of neuropathic pain in a human patient", "setting": "human patient", "value": 6, "unit": "h"},
      {"measurement": "Blood levels after oral administration", "setting": "[2]; oral, 16.66 mg/kg", "value": "relatively high blood levels"},
      {"measurement": "Amount of pregabalin entering the bloodstream during topical treatment", "setting": "[2]; topical treatment", "value": "very small amounts"}
    ]}
  ]
}
